Results taken from patent US11602147B2, “Nematode control” (University of Idaho, priority 2017, dated 2023).

Experiments:
[1] = pH stability of 4-hydroxybenzyl isothiocyanate in buffered aqueous solutions; format: physicochemical
Experimental: Partially purified 4-hydroxybenzyl isothiocyanate was prepared by suspending 500 grams of S. alba seed meal in 2 liters of deionized water and extracting the mixture with 500 milliliters of ethyl acetate for 24 hours. The ethyl acetate extract was separated by decanting the top organic layer after centrifugation, dried with 100 g of anhydrous sodium sulfate overnight, and concentrated under vacuum at laboratory temperature. The crude 4-hydroxybenzyl isothiocyanate extract was further purified by preparative column chromatography on silica gel (500 grams). […] Content of 4-hydroxybenzyl isothiocyanate within the fractions was verified by GC-MS using instrumentation and conditions as described previously. Fractions containing 4-hydroxybenzyl isothiocyanate were combined and concentrated under vacuum at laboratory temperature producing a yellowish, viscous fluid displaying only 4-hydroxybenzyl isothiocyanate and pentane/methylene chloride solvent peaks in the GC chromatogram. No further concentration of 4-hydroxybenzyl isothiocyanate was achieved using vacuum distillation because of its instability.
Actual pH values of the buffers of 3.03, 3.52, 4.02, 4.49, 5.00, 5.46, 5.91, and 6.52 were verified using an Orion model 420A pH meter (Orion Research, Boston). […]

Globodera pallida eggs = experiment: Globodera pallida egg hatching assay after 2-week exposure of encysted eggs; format: in vivo
Experimental: An initial experiment was conducted to determine possible effects of S. alba seed meal on hatch of Globodera pallida eggs. Measuring the percentage egg hatch is a viability indicator and provides an indication of the potential impact from a treatment. In this experiment, Globodera pallida encysted eggs were exposed to S. alba seed meal for 2 weeks in small containers containing a sand:soil mix. The sand:soil mix without seed meal was used as the non-treated control. […] The experiment had two treatments: 1) a non-treated bare soil control; or 2) S. alba seed meal. Each treatment included 5 replicates. Eggs from each of these treatments were exposed to either PRD or SE for 2 weeks, at which time hatched infectious 2nd stage Globodera pallida juveniles (J2) were counted. The objective of this experiment was to determine if 4-hydroxybenzyl alcohol (HBA), the product of enzymatic hydrolysis of the glucosinolate sinalbin contained in S. alba seed meal, could be responsible for the observed enhanced hatch. In an experiment similar to Example 1, encysted eggs were exposed to either HBA, or S. alba seed (yellow mustard) meal. The non-treated eggs were placed in bare soil mix only. After 2 weeks, exposed eggs were placed in hatching assays in either PRD or in soil extract, and hatched J2 were counted. In this experiment, the impact of different application rates of HBA on percent Globodera pallida hatch was investigated (FIG. 13). Again, hatch of the non-treated control was higher in PRD than in soil extract. […] An increase in hatch of approximately 60% occurred with a 1 μmol/ml pre-treatment with HBA prior to PRD exposure.

cotton = conditions: solutions sprayed directly on vegetative growth; cited from earlier work
wheat = conditions: effect no longer observed at 69 days post application; cited from earlier work
vegetative cover / weeds = conditions: cited from earlier work

## Oc1ccc(CN=C=S)cc1 [4-hydroxybenzyl isothiocyanate]
[1]; 0.1 M sodium citrate/citric acid buffer (aqueous), pH 7.0 (overview text)
  half-life at 0.1 % v/v (partially purified extract in buffer): < 5 min
[1]; aqueous media
  stability in aqueous media: unstable

## OCc1ccc(O)cc1 [HBA, 4-hydroxybenzyl alcohol]
Globodera pallida eggs; 1 μmol/ml pre-treatment with HBA prior to PRD exposure
  increase in hatch: approximately 60%
Globodera pallida eggs; 1 μmol/ml versus 2, 4, 8 μmol/ml
  hatch enhancement, comparison of application rates: enhanced hatch of Globodera pallida more effectively than higher rates tested
Globodera pallida eggs; 2-week exposure in soil mix, then hatched in potato root diffusate (PRD)
  increase in Globodera pallida egg hatch compared to non-treated control: 50%

## N#CS [SCN^−, ionic thiocyanate]
cotton
  rate at which cotton defoliation was possible: 8.6 kilograms SCN^−/ha
wheat
  application rate causing inhibition of wheat germination: 342 kilograms SCN^−/ha
Vegetative cover / weeds; for 4 months
  rate necessary for complete plant kill: 1,366 kg SCN^−/ha
Vegetative cover / weeds; in vivo
  rate removing a large percentage of the weeds: 137 kilograms SCN^−/ha
